Measured values: ChEMBL document CHEMBL3232945 (Eur J Med Chem, 2014)

Columns and labels:
[1] = system: Rattus norvegicus; assay: Toxicity in […] normotensive Wistar rat assessed as mean arterial pressure at 40 mg/kg, ip after 60 mins (reference value: 95.07 +/- 1.973 mmHg); assay type: organism-based, Artery; set-up: dose 40 mg/kg, route intraperitoneal; settings: in vivo, 1 h
[2] = system: Rattus norvegicus; assay: Antihypertensive activity in Wistar rat assessed as mean arterial pressure at 40 mg/kg, ip measured immediately at 0 min (reference value: 194.08 +/- 1.962 mmHg); assay type: functional, Artery; settings: route intraperitoneal
[3] = system: Rattus norvegicus; assay: Antihypertensive activity in Wistar rat assessed as mean arterial pressure at 40 mg/kg, ip after 15 mins (reference value: 195.68 +/- 1.623 mmHg); assay type: functional, Artery; settings: route intraperitoneal
[4] = system: Rattus norvegicus; assay: Antihypertensive activity in Wistar rat assessed as mean arterial pressure at 40 mg/kg, ip after 30 mins (reference value: 194.72 +/- 1.002 mmHg); assay type: functional, Artery; settings: route intraperitoneal
[5] = system: Rattus norvegicus; assay: Antihypertensive activity in Wistar rat assessed as mean arterial pressure at 40 mg/kg, ip after 45 mins (reference value: 193.96 +/- 0.865 mmHg); assay type: functional, Artery; settings: route intraperitoneal
[6] = system: Rattus norvegicus; assay: Antihypertensive activity in Wistar rat assessed as mean arterial pressure at 40 mg/kg, ip after 60 mins (reference value: 195.11 +/- 0.531 mmHg); assay type: functional, Artery; settings: route intraperitoneal
[7] = system: Rattus norvegicus; assay: Toxicity in anesthetized-normotensive Wistar rat assessed as heart rate at 40 mg/kg, ip measured immediately at 0 min (reference value: 316.62 +/- 9.643 bpm); assay type: organism-based; set-up: dose 40 mg/kg, route intraperitoneal; settings: in vivo, 0 h
[8] = system: Rattus norvegicus; assay: Toxicity in anesthetized-normotensive Wistar rat assessed as heart rate at 40 mg/kg, ip after 15 mins (reference value: 313.93 +/- 9.912 bpm); assay type: organism-based; set-up: dose 40 mg/kg, route intraperitoneal; settings: in vivo, 0.25 h
[9] = system: Rattus norvegicus; assay: Toxicity in anesthetized-normotensive Wistar rat assessed as heart rate at 40 mg/kg, ip after 30 mins (reference value: 317.68 +/- 7.631 bpm); assay type: organism-based; set-up: dose 40 mg/kg, route intraperitoneal; settings: in vivo, 0.5 h
[10] = system: Rattus norvegicus; assay: Toxicity in anesthetized-normotensive Wistar rat assessed as heart rate at 40 mg/kg, ip after 45 mins (reference value: 316.82 +/- 8.452 bpm); assay type: organism-based; set-up: dose 40 mg/kg, route intraperitoneal; settings: in vivo, 0.75 h
[11] = system: Rattus norvegicus; assay: Toxicity in anesthetized-normotensive Wistar rat assessed as heart rate at 40 mg/kg, ip after 60 mins (reference value: 314.96 +/- 9.442 bpm); assay type: organism-based; set-up: dose 40 mg/kg, route intraperitoneal; settings: in vivo, 1 h
[12] = system: Rattus norvegicus; assay: Antiarrhythmic activity in barium chloride-induced Wistar rat assessed as increase in appearance time of arrhythmia at 40 mg/kg, ip administered 60 mins before barium chloride challenge (reference value: 129.4 +/- 4.373 sec); assay type: functional, Heart; settings: route intraperitoneal
[13] = system: Rattus norvegicus; assay: Antiarrhythmic activity in barium chloride-induced Wistar rat assessed as increase in mortality time at 40 mg/kg, ip administered 60 mins before barium chloride challenge (reference value: 682.8 +/- 9.656 secs); assay type: functional, Heart; settings: route intraperitoneal
[14] = system: Rattus norvegicus; assay: Toxicity in anaesthetized-Wistar rat assessed as P-Q ECG interval at 40 mg/kg, ip measured immediately at 0 min (reference value: 52.4 +/- 0.927 ms); assay type: organism-based; set-up: dose 40 mg/kg, route intraperitoneal; settings: in vivo, 0 h
[15] = system: Rattus norvegicus; assay: Toxicity in anaesthetized-Wistar rat assessed as QRS ECG interval at 40 mg/kg, ip measured immediately at 0 min (reference value: 19.6 +/- 1.142 ms); assay type: organism-based; set-up: dose 40 mg/kg, route intraperitoneal; settings: in vivo, 0 h
[16] = system: Rattus norvegicus; assay: Toxicity in anaesthetized-Wistar rat assessed as Q-T ECG interval at 40 mg/kg, ip measured immediately at 0 min (reference value: 78.8 +/- 1.030 ms); assay type: organism-based; set-up: dose 40 mg/kg, route intraperitoneal; settings: in vivo, 0 h
[17] = system: Rattus norvegicus; assay: Toxicity in anaesthetized-Wistar rat assessed as P-Q ECG interval at 40 mg/kg, ip after 15 mins (reference value: 52.2 +/- 1.158 ms); assay type: organism-based; set-up: dose 40 mg/kg, route intraperitoneal; settings: in vivo, 0.25 h
[18] = system: Rattus norvegicus; assay: Toxicity in anaesthetized-Wistar rat assessed as QRS ECG interval at 40 mg/kg, ip after 15 mins (reference value: 18.9 +/- 1.563 ms); assay type: organism-based; set-up: dose 40 mg/kg, route intraperitoneal; settings: in vivo, 0.25 h
[19] = system: Rattus norvegicus; assay: Toxicity in anaesthetized-Wistar rat assessed as Q-T ECG interval at 40 mg/kg, ip after 15 mins (reference value: 79.4 +/- 1.270 ms); assay type: organism-based; set-up: dose 40 mg/kg, route intraperitoneal; settings: in vivo, 0.25 h
[20] = system: Rattus norvegicus; assay: Toxicity in anaesthetized-Wistar rat assessed as P-Q ECG interval at 40 mg/kg, ip after 30 mins (reference value: […] +/- 0.927 ms); assay type: organism-based; set-up: dose 40 mg/kg, route intraperitoneal; settings: in vivo, 0.5 h
[21] = system: Rattus norvegicus; assay: Toxicity in anaesthetized-Wistar rat assessed as QRS ECG interval at 40 mg/kg, ip after 30 mins (reference value: 19.9 +/- 1.393 ms); assay type: organism-based; set-up: dose 40 mg/kg, route intraperitoneal; settings: in vivo, 0.5 h
[22] = system: Rattus norvegicus; assay: Toxicity in anaesthetized-Wistar rat assessed as Q-T ECG interval at 40 mg/kg, ip after 30 mins (reference value: 78.3 +/- 0.860 ms); assay type: organism-based; set-up: dose 40 mg/kg, route intraperitoneal; settings: in vivo, 0.5 h
[23] = system: Rattus norvegicus; assay: Toxicity in anaesthetized-Wistar rat assessed as P-Q ECG interval at 40 mg/kg, ip after 45 mins (reference value: 52.5 +/- 0.780 ms); assay type: organism-based; set-up: dose 40 mg/kg, route intraperitoneal; settings: in vivo, 0.75 h
[24] = system: Rattus norvegicus; assay: Toxicity in anaesthetized-Wistar rat assessed as QRS ECG interval at 40 mg/kg, ip after 45 mins (reference value: 20.2 +/- 1.348 ms); assay type: organism-based; set-up: dose 40 mg/kg, route intraperitoneal; settings: in vivo, 0.75 h
[25] = system: Rattus norvegicus; assay: Toxicity in anaesthetized-Wistar rat assessed as Q-T ECG interval at 40 mg/kg, ip after 45 mins (reference value: 78.8 +/- 0.927 ms); assay type: organism-based; set-up: dose 40 mg/kg, route intraperitoneal; settings: in vivo, 0.75 h
[26] = system: Rattus norvegicus; assay: Toxicity in anaesthetized-Wistar rat assessed as P-Q ECG interval at 40 mg/kg, ip after 60 mins (reference value: […] +/- 0.924 ms); assay type: organism-based; set-up: dose 40 mg/kg, route intraperitoneal; settings: in vivo, 1 h
[27] = system: Rattus norvegicus; assay: Toxicity in anaesthetized-Wistar rat assessed as QRS ECG interval at 40 mg/kg, ip after 60 mins (reference value: 19.3 +/- 0.873 ms); assay type: organism-based; set-up: dose 40 mg/kg, route intraperitoneal; settings: in vivo, 1 h
[28] = system: Rattus norvegicus; assay: Toxicity in anaesthetized-Wistar rat assessed as Q-T ECG interval at 40 mg/kg, ip after 60 mins (reference value: 79.7 +/- 0.965 ms); assay type: organism-based; set-up: dose 40 mg/kg, route intraperitoneal; settings: in vivo, 1 h
[29] = system: Rattus norvegicus; assay: Toxicity in […] normotensive Wistar rat assessed as mean arterial pressure at 40 mg/kg, ip measured immediately at 0 min (reference value: 94.21 +/- 2.065 mmHg); assay type: organism-based, Artery; set-up: dose 40 mg/kg, route intraperitoneal; settings: in vivo, 0 h
[30] = system: Rattus norvegicus; assay: Toxicity in […] normotensive Wistar rat assessed as mean arterial pressure at 40 mg/kg, ip after 15 mins (reference value: 93.81 +/- 1.543 mmHg); assay type: organism-based, Artery; set-up: dose 40 mg/kg, route intraperitoneal; settings: in vivo, 0.25 h
[31] = system: Rattus norvegicus; assay: Toxicity in […] normotensive Wistar rat assessed as mean arterial pressure at 40 mg/kg, ip after 30 mins (reference value: 94.68 +/- 1.213 mmHg); assay type: organism-based, Artery; set-up: dose 40 mg/kg, route intraperitoneal; settings: in vivo, 0.5 h
[32] = system: Rattus norvegicus; assay: Toxicity in […] normotensive Wistar rat assessed as mean arterial pressure at 40 mg/kg, ip after 45 mins (reference value: 94.83 +/- 0.943 mmHg); assay type: organism-based, Artery; set-up: dose 40 mg/kg, route intraperitoneal; settings: in vivo, 0.75 h

SMILES | Activity [1] [mmHg] | Activity [2] [mmHg] | Activity [3] [mmHg] | Activity [4] [mmHg] | Activity [5] [mmHg] | Activity [6] [mmHg] | Activity [7] [bpm] | Activity [8] [bpm] | Activity [9] [bpm] | Activity [10] [bpm] | Activity [11] [bpm] | Time [12] [s] | Time [13] [s] | Activity [14] [ms] | Activity [15] [min] | Activity [16] [min] | Activity [17] [min] | Activity [18] [min] | Activity [19] [min] | Activity [20] [min] | further results
CCN(CC)CC(O)CN1C(=O)/C(=C\c2ccccc2)S/C1=N\c1ccccc1 (stereo unspecified) | 73.31 | 194.43 | 172.98 | 161.27 | 119.43 | 159.87 | 319.65 | 312.24 | 274.66 | 309.56 | 312.28 | 343.1 | 1142.4 | 52 | 18.4 | 80.4 | 52.2 | 19.4 | 81.4 | 53.8 | Activity [21]: 21.2 ms; Activity [22]: 83.2 min; Activity [23]: 54.2 min; Activity [24]: 20.6 min; Activity [25]: 84.8 min; Activity [26]: 55.6 min; Activity [27]: 21.4 min; Activity [28]: 86.4 ms; Activity [29]: 91.39 mmHg; Activity [30]: 79.23 mmHg; Activity [31]: 68.93 mmHg; Activity [32]: 63.51 mmHg
O=C1/C(=C\c2ccccc2)S/C(=N\c2ccccc2)N1CC(O)CN(c1ccccc1)c1ccccc1 (stereo unspecified) | 90.27 | 194.26 | 183.55 | 169.59 | 159.27 | 169.93 | 316.34 | 305.46 | 292.41 | 289.26 | 302.92 | 234.8 | 768.5 | 50.6 | 20.3 | 70.2 | 51.2 | 21.2 | 71.5 | 54.1 | Activity [21]: 22.1 ms; Activity [22]: 72.3 min; Activity [23]: 53.4 min; Activity [24]: 21.6 min; Activity [25]: 0.00119 min; Activity [26]: 52.6 min; Activity [27]: 20.4 min; Activity [28]: 70.7 ms; Activity [29]: 94.09 mmHg; Activity [30]: 87.32 mmHg; Activity [31]: 85.08 mmHg; Activity [32]: 85.43 mmHg
CCCN(CCC)CC(O)CN1C(=O)/C(=C\c2ccccc2)S/C1=N\c1ccccc1 (stereo unspecified) | 88.98 | 193.57 | 184.76 | 170.1 | 153.26 | 172.23 | 329.62 | 319.34 | 289.52 | 305.32 | 312.43 | 266.1 | 938.4 | 49.4 | 22.8 | 72.5 | 49.7 | 23.2 | 72.9 | 51.3 | Activity [21]: 23.8 ms; Activity [22]: 73.4 min; Activity [23]: 52.4 min; Activity [24]: 24.1 min; Activity [25]: 74.9 min; Activity [26]: 50.2 min; Activity [27]: 22.5 min; Activity [28]: 72.7 ms; Activity [29]: 95.41 mmHg; Activity [30]: 91.1 mmHg; Activity [31]: 79.16 mmHg; Activity [32]: 72.37 mmHg
